{"source": "paper PMC7272617", "about": "(Scientific Reports, 2020)", "key": {"[1]": {"tested_on": "human red blood cells (hRBCs)", "assay": "Hemolytic activity, hemoglobin release", "method": "Hemolytic activity of the peptides was assayed against human red blood cells (hRBCs) by measuring the amount of hemoglobin released after treatment. The hRBCs, freshly collected from a healthy volunteer in polycarbonate tubes containing heparin, were washed three times in sterile phosphate buffered saline (PBS) and centrifuged at 2,000 × g for 5 min or until the supernatant became clear. […] After 1 h of incubation at 37 °C, intact hRBCs were pelleted by centrifugation at 2,000 × g for 10 min. The supernatant was transferred to a new 96-well plate and the release of hemoglobin was monitored by measurement of absorbance at 405 nm using a Multiskan FC microplate reader. The hRBCs in PBS only (ODBlank) and in 0.1% Triton X-100 (ODTriton X-100) were employed as negative (0% hemolysis) and positive (100% hemolysis) controls, respectively. The percentage of hemolysis was calculated according to the following equation: %Hemolysis=(ODSample−ABlank)/(ODTritonX−100−ODBlank)×100"}, "[2]": {"tested_on": "Staphylococcus epidermidis ATCC 12228", "conditions": "ATCC 12228, 24 h"}, "LPS from E. coli O111:B4": {"tested_on": "LPS from E. coli O111:B4", "assay": "LPS binding, chromogenic limulus amebocyte lysate (LAL) assay", "design": "species or system Escherichia coli", "conditions": "1 EU/mL LPS, 1 × to 32 × MIC, 37 °C, 30 min; result in words", "method": "The ability of PA-13 to bind LPS was assessed using a quantitative, chromogenic limulus amebocyte lysate (LAL) according to the manufacturer’s instructions (Thermo Scientific). The LAL test is a sensitive indicator of the presence of free or non-neutralized endotoxin[30]. Stock solutions of peptide were prepared in endotoxin-free water provided with the kit. […] LAL reagent was added and incubated for 10 min at 37 °C, followed by addition of a colorless substrate and incubation for a further 6 min. The reaction was stopped with 25% (vol/vol) glacial acetic acid and the release of p-nitroaniline followed by absorbance at 405 nm. Endotoxin-free water served as a negative control (blank) and was considered 0% LPS binding. After blank subtraction, the percentage of LPS binding was calculated according to the following equation: %LPSbinding=(ODUntreated-ODTreated)/ODUntreated×100"}, "[3]": {"tested_on": "Bacillus cereus ATCC 11778", "conditions": "ATCC 11778, 24 h"}, "[4]": {"tested_on": "MDR P. aeruginosa clinical isolate No.1"}}, "note": "Where a SMILES comes first, the peptide text is derived from it."}
{"molecule": "CC[C@H](C)[C@H](NC(=O)[C@H](CCCNC(=N)N)NC(=O)[C@H](CCCCN)NC(=O)[C@H](C)NC(=O)[C@@H](NC(=O)[C@@H](N)CCCCN)[C@@H](C)CC)C(=O)N[C@@H](Cc1c[nH]c2ccccc12)C(=O)N[C@@H](CCCCN)C(=O)N[C@H](C(=O)N[C@@H](CC(C)C)C(=O)N[C@@H](CCCNC(=N)N)C(=O)N[C@@H](CCCNC(=N)N)C(=O)N[C@@H](CCCNC(=N)N)C(N)=O)[C@@H](C)CC", "note": "[PA-13] (H-KIAKRIWKILRRR-NH2; N-terminus assumed)", "values": [{"measurement": "hemolytic activity at the MIC", "setting": "[1]", "value": "less than 2%"}, {"measurement": "MIC", "setting": "[2]", "value": 3.91, "unit": "µg/mL"}, {"measurement": "LPS binding activity", "setting": "LPS from E. coli O111:B4", "value": "dose-dependent LPS binding activity"}, {"measurement": "MIC", "setting": "[3]", "value": 15.63, "unit": "µg/mL"}, {"measurement": "MIC", "setting": "[4]", "value": 3.91, "unit": "µg/mL"}]}
